Laboratory results published in patent publication US20190105367A1, “ANTIMICROBIAL 4-OXOQUINOLIZINES” (Emergent Product Development Gaithersburg Inc., priority 2011, published 2019).
Values after ≈ are worked out from the molar mass of the structure shown. Like-named read-outs stand apart in the source and are kept apart here.

What was measured:
[1] = test system: Acinetobacter sp. (H064200250); assay: MIC without and with sub-inhibitory polymyxin B (Example 4); type: cell-based; conditions: for MIC: Acinetobacter
A. baumannii A14 [2] = assay: Preliminary MBC without and with sub-inhibitory polymyxin B (Example 4); type: cell-based, Acinetobacter baumannii; conditions: A. baumannii A14; +0.06 μg/ml polymyxin B; preliminary MBC; 1st experiment
A. baumannii A473 [3] = assay: as above; type: cell-based, Acinetobacter baumannii; conditions: Acinetobacter baumannii, A473, A. baumannii A473, +0.06 μg/ml PB, 2nd experiment, read-out: MBC
Summary of the method: (§1)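 Incubation 18-20 h, 37° C. MBC = lowest conc. with ~90% fewer colonies than positive control (single/no colonies).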

A. baumannii NCTC 13301 [4] = assay: as above; type: cell-based, Acinetobacter baumannii; conditions: Acinetobacter baumannii
Summary of the method: as §1

A. baumannii A390 [5] = assay: as above; type: cell-based, Acinetobacter baumannii; conditions: Acinetobacter baumannii, A390, A. baumannii A390, +0.06 μg/ml PB, 2nd experiment, read-out: MBC
Summary of the method: as §1

A. baumannii A14 [6] = assay: as above; type: cell-based, Acinetobacter baumannii; conditions: A. baumannii A14, +0.06 μg/ml PB, 2nd experiment
Summary of the method: as §1

[7] = test system: strains of A. baumannii and one strain of Acinetobacter sp.; assay: MIC with sub-inhibitory concentrations (0.25x MIC) of polymyxin B, panel of Acinetobacter strains (Example 4); type: cell-based
A. baumannii A489 = assay: MIC without and with sub-inhibitory polymyxin B (Example 4); type: cell-based, Acinetobacter baumannii; conditions: for MIC without PB/MIC + PB: A. baumannii A489; for MIC: Acinetobacter baumannii
A. baumannii A401 [8] = assay: Preliminary MBC without and with sub-inhibitory polymyxin B (Example 4); type: cell-based, Acinetobacter baumannii; conditions: Acinetobacter baumannii
A. baumannii A14 [9] = assay: MIC without and with sub-inhibitory polymyxin B (Example 4); type: cell-based, Acinetobacter baumannii; conditions: 2nd experiment
A. baumannii A390 [10] = assay: as above; type: cell-based, Acinetobacter baumannii; conditions: +0.06 μg/ml PB, 2nd experiment
A. baumannii A472 [11] = assay: Preliminary MBC without and with sub-inhibitory polymyxin B (Example 4); type: cell-based, Acinetobacter baumannii; conditions: Acinetobacter baumannii, preliminary MBC
A. baumannii J2 = assay: MIC without and with sub-inhibitory polymyxin B (Example 4); type: cell-based, Acinetobacter baumannii; conditions: for MIC without PB/MIC + PB: A. baumannii J2; for MIC: Acinetobacter baumannii
A. baumannii A472 [12] = assay: as above; type: cell-based, Acinetobacter baumannii; conditions: for MIC: Acinetobacter baumannii
A. baumannii A387 [13] = assay: Preliminary MBC without and with sub-inhibitory polymyxin B (Example 4); type: cell-based, Acinetobacter baumannii; conditions: Acinetobacter baumannii
A. baumannii NCTC 13301 [14] = assay: MIC without and with sub-inhibitory polymyxin B (Example 4); type: cell-based, Acinetobacter baumannii; conditions: +[…] PB, 2nd experiment
A. baumannii A401 [15] = assay: as above; type: cell-based, Acinetobacter baumannii; conditions: for MIC: Acinetobacter baumannii
A. baumannii A473 [16] = assay: as above; type: cell-based, Acinetobacter baumannii; conditions: A. baumannii A473; +0.06 μg/ml PB; 2nd experiment
A. baumannii A14 [17] = assay: as above; type: cell-based, Acinetobacter baumannii; conditions: 1st experiment
A. baumannii NCTC 13301 [18] = assay: as above; type: cell-based, Acinetobacter baumannii
A. baumannii ATCC 19606 [19] = assay: as above; type: cell-based, Acinetobacter baumannii; conditions: for MIC without PB/MIC + PB: A. baumannii ATCC 19606
A. baumannii A329 = assay: as above; type: cell-based, Acinetobacter baumannii; conditions: +0.06 μg/ml PB, 2nd experiment
A. baumannii A387 [20] = assay: as above; type: cell-based, Acinetobacter baumannii; conditions: for MIC without PB/MIC + PB: A. baumannii A387
A. baumannii ATCC 19606 [21] = assay: Preliminary MBC without and with sub-inhibitory polymyxin B (Example 4); type: cell-based, Acinetobacter baumannii; conditions: Acinetobacter baumannii
[22] = A. baumannii A14, +0.06 μg/ml PB
[23] = ratio, PB 0.06 μg/ml, 1st experiment

For `Cc1c(-c2ccc(CN)c(F)c2)ccn2c(=O)c(C(=O)O)cc(C3CC3)c12` [Compound 4, 8-(3-fluoro-4-aminomethyl-phenyl)-1-cyclopropyl-9-methyl-4-oxo-quinolizine-3-carboxylic acid], the “MIC without PB/MIC + PB” value ([1]; Acinetobacter spp. H064200250 (OXA51), +[…] PB, 2nd experiment) was 64, the “MIC without PB/MIC + PB” value ([1]; Acinetobacter spp. H064200250, ratio, PB […], 1st experiment) was 4 and the MIC ([1]; Acinetobacter spp. H064200250 (OXA51), +[…] PB, 2nd experiment, read-out: MIC) was 0.5 µg/mL (≈ 1.36 µM). The MIC ([1]; read-out: MIC +[…] PB, Acinetobacter spp. H064200250, +[…] polymyxin B, 1st experiment) was 4 µg/mL (≈ 10.9 µM), the “MBC +0.06 μg/ml PB” value (A. baumannii A14 [2]) was 8 µg/mL and the MBC (A. baumannii A473 [3]) was 0.25 µg/mL (≈ 0.682 µM). For the same molecule, the MBC (A. baumannii NCTC 13301 [4]; NCTC13301, A. baumannii NCTC 13301, +[…] PB, preliminary MBC, 2nd experiment, read-out: MBC) was 0.25 µg/mL (≈ 0.682 µM), the MBC (A. baumannii NCTC 13301 [4]; NCTC13301, read-out: MBC +[…] PB) was 0.5 µg/mL (≈ 1.36 µM) and the MBC (A. baumannii A390 [5]) was 0.5 µg/mL (≈ 1.36 µM). The MBC (A. baumannii A14 [6]) was 8 µg/mL (≈ 21.8 µM), the “Range ratios MIC without PB/MIC with PB Oct. 1, 2008 n = 8” value ([7]; 1st experiment) was 2-8 and the “MIC range with PB (0.25x MIC) Oct. 1, 2008 n = 8” value ([7]; 1st experiment, […] polymyxin B, ATCC 19606, A329, A390 and A473 not taken) was 1 to 8 µg/mL. For the same molecule, the “Range ratios MIC without PB/MIC with PB Oct. 14, 2008 n = 11” value ([7]; 2nd experiment) was 1-16, the “MIC range with PB (0.25x MIC) Oct. 14, 2008 n = 11” value ([7]; 2nd experiment, 0.06 μg/ml polymyxin B, all strains except the ATCC strain) was 0.5 to 8 µg/mL and the “MIC without PB/MIC + PB” value (A. baumannii A489; +[…] PB, 2nd experiment) was ≥512. The “MIC without PB/MIC + PB” value (A. baumannii A489; ratio, PB […], 1st experiment) was 8, the MIC (A. baumannii A489; A489, A. baumannii A489, +[…] PB, 2nd experiment, read-out: MIC) was ≤ 0.03 µg/mL and the MIC (A. baumannii A489; A489, read-out: MIC +[…] PB, A. baumannii A489, +[…] polymyxin B, 1st experiment) was 1 µg/mL (≈ 2.73 µM). The MBC (A. baumannii A401 [8]; A401, A baumannii A 401, +0.06 μg/ml PB, 2nd experiment, read-out: MBC) was 0.5 µg/mL (≈ 1.36 µM), the MBC (A. baumannii A401 [8]; A401, read-out: MBC +0.06 μg/ml PB, A baumannii A 401, +0.06 μg/ml polymyxin B, 1st experiment) was 2 µg/mL and the MIC (A. baumannii A14 [9]; [22]) was 2 µg/mL (≈ 5.46 µM). The “MIC without PB/MIC + PB” value (A. baumannii A14 [9]; [22]) was 16, the MIC (A. baumannii A14 [9]; Acinetobacter baumannii, A14, A. baumannii A14, without PB, read-out: MIC) was 32 µg/mL (≈ 87.3 µM) and the “MIC without PB/MIC + PB” value (A. baumannii A390 [10]; A. baumannii A390) was 64. For the same molecule, the MIC (A. baumannii A390 [10]; Acinetobacter baumannii, A390, A. baumannii A390, read-out: MIC) was 0.5 µg/mL (≈ 1.36 µM), the MBC (A. baumannii A472 [11]; A472, A. baumannii A472, +[…] PB, 2nd experiment, read-out: MBC) was 0.125 µg/mL (≈ 0.341 µM) and the MBC (A. baumannii A472 [11]; A472, read-out: MBC +[…] PB, A. baumannii A472, +[…] polymyxin B, 1st experiment) was 1 µg/mL (≈ 2.73 µM). The “MIC without PB/MIC + PB” value (A. baumannii J2; +[…] PB, 2nd experiment) was 128, the “MIC without PB/MIC + PB” value (A. baumannii J2; ratio, PB […], 1st experiment) was 4 and the MIC (A. baumannii J2; J2, A. baumannii J2, +[…] PB, 2nd experiment, read-out: MIC) was 0.06 µg/mL (≈ 0.164 µM). The MIC (A. baumannii J2; J2, read-out: MIC +[…] PB, A. baumannii J2, +[…] polymyxin B, 1st experiment) was 2 µg/mL (≈ 5.46 µM), the “MIC without PB/MIC + PB” value (A. baumannii A472 [12]; A. baumannii A472, ratio, PB […], 1st experiment) was 4 and the MIC (A. baumannii A472 [12]; A472, A. baumannii A472, +[…] PB, 2nd experiment, read-out: MIC) was 0.125 µg/mL (≈ 0.341 µM). It also gave an MIC (A. baumannii A472 [12]; A472, read-out: MIC +[…] PB, A. baumannii A472, +[…] polymyxin B, 1st experiment) of 1 µg/mL (≈ 2.73 µM), an MBC (A. baumannii A387 [13]; A387, A. baumannii A387, +0.06 μg/ml PB, 2nd experiment, read-out: MBC) of 0.5 µg/mL (≈ 1.36 µM) and an MBC (A. baumannii A387 [13]; A387, read-out: MBC +0.06 μg/ml PB, A. baumannii A387, +0.06 μg/ml polymyxin B, 1st experiment) of 1 µg/mL. For the same molecule, the “MIC without PB/MIC + PB” value (A. baumannii NCTC 13301 [14]; A. baumannii NCTC 13301) was 128, the MIC (A. baumannii NCTC 13301 [14]; Acinetobacter baumannii, NCTC13301, A. baumannii NCTC 13301, read-out: MIC) was 0.25 µg/mL (≈ 0.682 µM) and the “MIC without PB/MIC + PB” value (A. baumannii A401 [15]; A baumannii A 401, ratio, PB 0.06 μg/ml, 1st experiment) was 4. The MIC (A. baumannii A401 [15]; A401, A baumannii A 401, +0.06 μg/ml PB, 2nd experiment, read-out: MIC) was 0.5 µg/mL (≈ 1.36 µM), the MIC (A. baumannii A401 [15]; A401, read-out: MIC +0.06 μg/ml PB, A baumannii A 401, +0.06 μg/ml polymyxin B, 1st experiment) was 4 µg/mL and the MIC (A. baumannii A473 [16]) was 0.25 µg/mL (≈ 0.682 µM). For the same molecule, the “MIC without PB/MIC + PB” value (A. baumannii A473 [16]) was 32, the “MIC +0.06 μg/ml PB” value (A. baumannii A14 [17]; +0.06 μg/ml polymyxin B) was 8 µg/mL and the “MIC without PB/MIC + PB” value (A. baumannii A14 [17]; ratio, PB 0.06 μg/ml) was 4. For the same molecule, the “MIC without PB/MIC + PB” value (A. baumannii NCTC 13301 [18]; A. baumannii NCTC 13301, ratio, PB […], 1st experiment) was 8, the MIC (A. baumannii NCTC 13301 [18]; Acinetobacter baumannii, NCTC13301, read-out: MIC +[…] PB) was 1 µg/mL (≈ 2.73 µM) and the “MIC without PB/MIC + PB” value (A. baumannii ATCC 19606 [19]; +0.06 μg/ml PB, 2nd experiment) was ≥16. The “MIC without PB/MIC + PB” value (A. baumannii ATCC 19606 [19]; [23]) was 2, the MIC (A. baumannii ATCC 19606 [19]; Acinetobacter baumannii, ATCC19606, read-out: MIC +0.06 μg/ml PB, A. baumannii ATCC 19606, +0.06 μg/ml polymyxin B, 1st experiment) was 0.125 µg/mL and the “MIC without PB/MIC + PB” value (A. baumannii A329; A. baumannii A329) was 2. For the same molecule, the MIC (A. baumannii A329; Acinetobacter baumannii, A329, A. baumannii A329, read-out: MIC) was 8 µg/mL (≈ 21.8 µM), the “MIC without PB/MIC + PB” value (A. baumannii A387 [20]; +0.06 μg/ml PB, 2nd experiment) was 8 and the “MIC without PB/MIC + PB” value (A. baumannii A387 [20]; [23]) was 2. The MIC (A. baumannii A387 [20]; Acinetobacter baumannii, A387, read-out: MIC +0.06 μg/ml PB, A. baumannii A387, +0.06 μg/ml polymyxin B, 1st experiment) was 1 µg/mL, the MBC (A. baumannii ATCC 19606 [21]; ATCC19606, A. baumannii ATCC 19606, +0.06 μg/ml PB, 2nd experiment, read-out: MBC) was ≤ 0.03 µg/mL and the MBC (A. baumannii ATCC 19606 [21]; ATCC19606, read-out: MBC +0.06 μg/ml PB, A. baumannii ATCC 19606, +0.06 μg/ml polymyxin B, 1st experiment) was 0.06 µg/mL.
